This experiment deals with T1, Tubulin (Sus scrofa, UniProt P02550+P02554).
T1 construct: Tubulin is purified from pig brain according to published methods; from tissue; host or cells: pig brain
Put plainly: Evaluation of the inhibition of tubulin polymerization (turbidimetry at 350 nm). Particulars: concentration that inhibits the rate of polymerization by 50%; pig brain tubulin 10 μM. The class given is biochemical. Here is the method: Briefly, the brains are ground and centrifuged in an extraction buffer. The tubulin contained in the supernatant of the extract undergoes two successive cycles of polymerization at 37° C. and depolymerization at 4° C., before being separated from the MAPs (Microtubule Associated Proteins) by chromatography on a phosphocellulose P11 column (Whatman). […] It is stored in a buffer known as RB/2 30% glycerol, the composition of which is 50 mM MES-NaOH [2-(N-morpholino)ethanesulphonic acid], pH 6.8; 0.25 mM MgCl2; 0.5 mM EGTA; 30% glycerol (v/v), 0.2 mM GTP (guanosine-5′-triphosphate).
The polymerization of tubulin to microtubules is monitored by turbidimetry as follows: the tubulin is adjusted to a concentration of 10 μM (1 mg/ml) in RB/2 30% glycerol buffer to which 1 mM GTP and 6 mM MgCl2 are added. […] The increase in the turbidity of the solution is monitored at 350 nm.
The products are dissolved at 10 mM in DMSO and added at variable concentrations (0.5 to 10 μM) to the tubulin solution before polymerization.

T1 sequence (P02550 whole entry): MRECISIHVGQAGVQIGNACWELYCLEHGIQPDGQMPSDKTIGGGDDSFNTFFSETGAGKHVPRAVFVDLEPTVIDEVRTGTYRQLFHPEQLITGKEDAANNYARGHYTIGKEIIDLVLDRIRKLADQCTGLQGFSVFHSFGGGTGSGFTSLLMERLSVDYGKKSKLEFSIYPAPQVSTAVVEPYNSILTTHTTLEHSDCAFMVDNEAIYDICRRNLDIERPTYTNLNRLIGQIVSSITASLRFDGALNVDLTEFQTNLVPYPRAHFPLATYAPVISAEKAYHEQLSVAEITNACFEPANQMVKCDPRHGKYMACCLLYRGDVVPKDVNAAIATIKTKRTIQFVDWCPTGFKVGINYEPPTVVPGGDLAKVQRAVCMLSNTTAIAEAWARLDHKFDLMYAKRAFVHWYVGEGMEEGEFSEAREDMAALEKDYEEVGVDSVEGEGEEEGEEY
T1 sequence (P02554 whole entry): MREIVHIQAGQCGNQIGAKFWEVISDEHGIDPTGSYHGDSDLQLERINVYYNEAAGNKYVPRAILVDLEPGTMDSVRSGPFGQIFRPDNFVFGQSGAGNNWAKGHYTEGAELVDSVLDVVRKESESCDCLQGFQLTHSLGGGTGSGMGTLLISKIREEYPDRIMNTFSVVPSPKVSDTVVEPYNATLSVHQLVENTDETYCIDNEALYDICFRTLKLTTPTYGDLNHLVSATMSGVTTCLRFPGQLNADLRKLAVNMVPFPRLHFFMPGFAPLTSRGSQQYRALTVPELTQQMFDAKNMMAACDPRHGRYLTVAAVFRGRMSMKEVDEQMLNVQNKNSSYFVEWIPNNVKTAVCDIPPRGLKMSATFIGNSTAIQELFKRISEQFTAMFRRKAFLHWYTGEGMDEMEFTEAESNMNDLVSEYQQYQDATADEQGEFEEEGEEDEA

As usually defined, the IC50 is the point on the concentration scale where inhibition reaches its midpoint. Low values mean greater potency, high ones weaker potency. Consider `CCOC(=O)c1n[nH]c2c1C=CC(C)(c1ccccc1)C2` (racemic) [Example 9-1, Ethyl 6-(R,S)-6-methyl-6-phenyl-6,7-dihydro-1H-indazole-3-carboxylate], for which inhibition was half-maximal at 18 µM (IC50).

Molecule `CCOC(=O)c1n[nH]c2c1C=CC(c1ccccc1)(c1ccc(OC)c(OC)c1)C2` (racemic) [Example 10-2, Ethyl 6-(R,S)-6-(3,4-dimethoxyphenyl)-6-phenyl-6,7-dihydro-1H-indazole-3-carboxylate] yielded an IC50 of 4.5 µM.

In turn, `ON=C(c1n[nH]c2c1C=CC(c1ccccc1)(c1ccccc1)C2)C1CC1` (single isomer, unassigned) [Example 6-1B, cyclopropyl(6,6-diphenyl-6,7-dihydro-1H-indazol-3-yl)methanone oxime] showed an IC50 of 3 µM.

`C=CCON=C(c1n[nH]c2c1C=CC(c1ccccc1)(c1ccccc1)C2)C1CCC1` (single isomer, unassigned) [Example 6-5, Cyclobutyl(6,6-diphenyl-6,7-dihydro-1H-indazol-3-yl)methanone O-allyloxime] displayed an IC50 of 3 µM.

Take `CCOC(=O)c1n[nH]c2c1C=CC(C)(c1ccccc1)C2` (single isomer, unassigned) [Example 9-2, ethyl 6-methyl-6-phenyl-6,7-dihydro-1H-indazole-3-carboxylate]: the IC50 is 15 µM.

`CCOC(=O)c1n[nH]c2c1C=CC(c1ccccc1)(c1ccc(F)cc1)C2` (single isomer, unassigned) [Example 10-3C, ethyl 6,6-(4-fluorophenyl)-6-phenyl-6,7-dihydro-1H-indazole-3-carboxylate] registered a 50% inhibitory concentration (IC50) of 1.5 µM.

As for `O=C(c1n[nH]c2c1C=CC(c1ccccc1)(c1ccc(F)cc1)C2)C1CC1` (single isomer, unassigned) [Example 10-4B, cyclopropyl[6-(4-fluorophenyl)-6-phenyl-6,7-dihydro-1H-indazol-3-yl]methanone], half-maximal inhibition (IC50) was put at 0.8 µM.

`O=C(c1n[nH]c2c1C=CC(c1ccccc1)(c1ccc(F)cc1)C2)C1CC1` (single isomer, unassigned) [Example 10-4C, cyclopropyl[6-(4-fluorophenyl)-6-phenyl-6,7-dihydro-1H-indazol-3-yl]methanone] gave a concentration for half-maximal inhibition (IC50) of 1.5 µM.

For `ON=C(c1n[nH]c2c1C=CC(c1ccccc1)(c1ccc(F)cc1)C2)C1CC1` (single isomer, unassigned) [Example 10-5B], the IC50 turned out to be 6 µM.

Regarding `O/N=C(/c1n[nH]c2c1C=CC(c1ccccc1)(c1ccc(F)cc1)C2)C1CC1` (single isomer, unassigned) [Example 10-5D, cyclopropyl[6-(4-fluorophenyl)-6-phenyl-6,7-dihydro-1H-indazol-3-yl]methanone oxime], the IC50 was determined as 1.5 µM.

In turn, `O/N=C(\c1n[nH]c2c1C=CC(c1ccccc1)(c1ccc(F)cc1)C2)C1CC1` (single isomer, unassigned) [Example 10-5E, cyclopropyl[6-(4-fluorophenyl)-6-phenyl-6,7-dihydro-1H-indazol-3-yl]methanone oxime] gave an IC50 of 6 µM. Compared with the last molecule, the IC50 is about 4-fold higher.

Consider `CC(C)OC(=O)c1[nH]nc2c1C=CC(c1ccccc1)(c1ccccc1)C2` [Example 2-1, Isopropyl 6,6-diphenyl-6,7-dihydro-2H-indazole-3-carboxylate], for which the half-inhibitory concentration (IC50) is 3.7 µM.

On to `COC(=O)c1[nH]nc2c1C=CC(c1ccccc1)(c1ccccc1)C2` [Example 2-2, Methyl 6,6-diphenyl-6,7-dihydro-2H-indazole-3-carboxylate], for which half-maximal inhibition (IC50) was put at 1.25 µM.

`O=C(c1n[nH]c2c1C=CC(c1ccccc1)(c1ccccc1)C2)N1CC1` [Example 3-4, Aziridin-1-yl(6,6-diphenyl-6,7-dihydro-1H-indazol-3-yl)methanone]: the IC50 was determined as 4.5 µM.

With `N#Cc1n[nH]c2c1C=CC(c1ccccc1)(c1ccccc1)C2` [Example 4, 6,6-Diphenyl-6,7-dihydro-1H-indazole-3-carbonitrile], 23 µM corresponded to half-maximal inhibition (IC50). Against the preceding molecule, the IC50 is about 5.1-fold higher.

Take `O=C(c1ccccc1)c1n[nH]c2c1C=CC(c1ccccc1)(c1ccccc1)C2` [Example 5-3, (6,6-Diphenyl-6,7-dihydro-1H-indazol-3-yl)phenylmethanone]: inhibition was half-maximal at 12.5 µM (IC50). Against the preceding molecule, the IC50 is about 1.8-fold lower.

`O=C(c1cc[nH]c1)c1n[nH]c2c1C=CC(c1ccccc1)(c1ccccc1)C2` [Example 5-4, (6,6-Diphenyl-6,7-dihydro-1H-indazol-3-yl)-(1H-pyrrol-3-yl)methanone] returned a 50% inhibitory concentration (IC50) of 7 µM.

For `C=CCO/N=C(/c1n[nH]c2c1C=CC(c1ccccc1)(c1ccccc1)C2)C1CC1` [Example 6-6B, cyclopropyl(6,6-diphenyl-6,7-dihydro-1H-indazol-3-yl)methanone O-allyloxime], the midpoint of inhibition, the IC50, lay at 1.2 µM.

For the molecule `COCCO/N=C(\c1n[nH]c2c1C=CC(c1ccccc1)(c1ccccc1)C2)C1CC1` [Example 6-7A, cyclopropyl(6,6-diphenyl-6,7-dihydro-1H-indazol-3-yl)methanone O-(2-methoxyethyl)oxime], the IC50 was 1.8 µM. This IC50 is about 1.5-fold higher than that of the molecule before.

The molecule `COCCO/N=C(/c1n[nH]c2c1C=CC(c1ccccc1)(c1ccccc1)C2)C1CC1` [Example 6-7B, cyclopropyl(6,6-diphenyl-6,7-dihydro-1H-indazol-3-yl)methanone O-(2-methoxyethyl)oxime] yielded a half-inhibitory concentration (IC50) of 6 µM.

Take `C1=CC(c2ccccc2)(c2ccccc2)Cc2[nH]nc(/C(=N\OCc3ccccc3)C3CC3)c21` [Example 6-8A, cyclopropyl(6,6-diphenyl-6,7-dihydro-1H-indazol-3-yl)methanone O-benzyloxime]: the IC50 is 1.3 µM.

In turn, `C1=CC(c2ccccc2)(c2ccccc2)Cc2[nH]nc(/C(=N/OCc3ccccc3)C3CC3)c21` [Example 6-8B, cyclopropyl(6,6-diphenyl-6,7-dihydro-1H-indazol-3-yl)methanone O-benzyloxime] came in with an IC50 of 10 µM. Against the preceding molecule, the IC50 is about 7.7-fold higher.

Regarding `O=[N+]([O-])c1ccc(CO/N=C(\c2n[nH]c3c2C=CC(c2ccccc2)(c2ccccc2)C3)C2CC2)cc1` [Example 6-9A, cyclopropyl(6,6-diphenyl-6,7-dihydro-1H-indazol-3-yl)methanone O-(4-nitrobenzyl)oxime], the IC50 turned out to be 1.5 µM.

As for `O=[N+]([O-])c1ccc(CO/N=C(/c2n[nH]c3c2C=CC(c2ccccc2)(c2ccccc2)C3)C2CC2)cc1` [Example 6-9B, cyclopropyl(6,6-diphenyl-6,7-dihydro-1H-indazol-3-yl)methanone O-(4-nitrobenzyl)oxime], the IC50 came out at 2.5 µM.

Consider `CN(C)CCO/N=C(\c1n[nH]c2c1C=CC(c1ccccc1)(c1ccccc1)C2)C1CC1` [Example 6-10A, cyclopropyl(6,6-diphenyl-6,7-dihydro-1H-indazol-3-yl)methanone O-(2-dimethylaminoethyl)oxime], for which half-maximal inhibition (IC50) was put at 4.5 µM.

For the molecule `CN(C)CCO/N=C(/c1n[nH]c2c1C=CC(c1ccccc1)(c1ccccc1)C2)C1CC1` [Example 6-10B, cyclopropyl(6,6-diphenyl-6,7-dihydro-1H-indazol-3-yl)methanone O-(2-dimethylaminoethyl)oxime], the half-maximal inhibitory concentration (IC50) was 12 µM. This IC50 lies about 2.7-fold higher than the previous one.

`FCCO/N=C(\c1n[nH]c2c1C=CC(c1ccccc1)(c1ccccc1)C2)C1CC1` [Example 6-11A, cyclopropyl(6,6-diphenyl-6,7-dihydro-1H-indazol-3-yl)methanone O-(2-fluoroethyl)oxime] returned a concentration for half-maximal inhibition (IC50) of 1 µM.

`FCCO/N=C(/c1n[nH]c2c1C=CC(c1ccccc1)(c1ccccc1)C2)C1CC1` [Example 6-11B, cyclopropyl(6,6-diphenyl-6,7-dihydro-1H-indazol-3-yl)methanone O-(2-fluoroethyl)oxime] displayed a concentration for half-maximal inhibition (IC50) of 1.3 µM. The IC50 values of the last two molecules are within 1.5-fold of each other.

Source of the values: patent US7119115B2, “Indazole or indole derivatives, and use thereof in human medicine and more particularly in oncology” (Aventis Pharma S.A., priority 2001, dated 2006).
